Laboratory results published in ChEMBL document CHEMBL3860101, “Targeting the Nerve Growth Factor (NGF) Pathway in Drug Discovery. Potential Applications to New Therapies for Chronic Pain” (J Med Chem, 2017).

Key:
[1] = molecular target: T1, Tumor necrosis factor receptor superfamily member 16 (Homo sapiens, UniProt P08138); test: Inhibition of mouse NGF binding to p75 (unknown origin) by SPR method
T1 sequence (P08138 whole entry): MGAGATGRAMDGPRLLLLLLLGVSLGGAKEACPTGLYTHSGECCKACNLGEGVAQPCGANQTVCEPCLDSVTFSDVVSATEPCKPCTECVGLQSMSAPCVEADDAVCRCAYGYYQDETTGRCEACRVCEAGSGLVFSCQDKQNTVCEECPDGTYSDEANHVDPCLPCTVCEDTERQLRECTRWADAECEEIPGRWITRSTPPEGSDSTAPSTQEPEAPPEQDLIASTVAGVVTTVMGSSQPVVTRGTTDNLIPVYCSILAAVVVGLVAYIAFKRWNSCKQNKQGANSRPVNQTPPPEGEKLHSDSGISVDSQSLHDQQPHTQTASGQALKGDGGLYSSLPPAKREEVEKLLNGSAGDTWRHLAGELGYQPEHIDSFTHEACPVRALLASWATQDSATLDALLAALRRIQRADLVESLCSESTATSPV

[2] = molecular target: T2, High affinity nerve growth factor receptor (Homo sapiens, UniProt P04629); test: Inhibition of mouse NGF binding to TrkA (unknown origin) by SPR method relative to control
Target sequence in this assay (P04629 33-796 limits assumed): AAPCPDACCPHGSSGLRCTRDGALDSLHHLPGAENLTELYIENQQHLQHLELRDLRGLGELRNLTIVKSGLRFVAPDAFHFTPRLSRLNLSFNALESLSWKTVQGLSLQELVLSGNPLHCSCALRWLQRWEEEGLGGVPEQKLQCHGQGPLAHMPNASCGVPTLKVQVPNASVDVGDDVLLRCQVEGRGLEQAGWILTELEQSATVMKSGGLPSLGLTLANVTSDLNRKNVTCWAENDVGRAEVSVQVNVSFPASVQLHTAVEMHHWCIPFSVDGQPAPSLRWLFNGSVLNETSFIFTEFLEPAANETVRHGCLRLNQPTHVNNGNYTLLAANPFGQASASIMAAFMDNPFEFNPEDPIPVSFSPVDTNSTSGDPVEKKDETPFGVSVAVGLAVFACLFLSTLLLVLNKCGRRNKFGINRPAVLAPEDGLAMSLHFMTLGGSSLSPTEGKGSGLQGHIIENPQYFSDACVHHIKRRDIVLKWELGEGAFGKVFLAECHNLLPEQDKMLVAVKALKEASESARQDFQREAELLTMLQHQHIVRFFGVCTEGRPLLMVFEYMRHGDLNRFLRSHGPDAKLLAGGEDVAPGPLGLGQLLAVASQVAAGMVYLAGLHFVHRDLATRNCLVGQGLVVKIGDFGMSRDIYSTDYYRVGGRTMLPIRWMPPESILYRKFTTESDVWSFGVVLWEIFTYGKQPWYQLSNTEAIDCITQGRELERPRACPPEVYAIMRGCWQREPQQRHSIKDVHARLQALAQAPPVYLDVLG

[3] = molecular target: T3, Tumor necrosis factor receptor superfamily member 16 (Homo sapiens) (UniProt P08138); test: Inhibition of mouse NGF binding to p75 (unknown origin) by SPR method relative to control
T3 sequence (whole entry): T1 sequence (P08138 whole entry)

[4] = molecular target: Beta-nerve growth factor (Mus musculus, UniProt P01139); test: Inhibition of mouse NGF binding to TrkA (unknown origin) by SPR method; design: species or system Homo sapiens
Sequence of Beta-nerve growth factor (P01139 whole entry, looked up): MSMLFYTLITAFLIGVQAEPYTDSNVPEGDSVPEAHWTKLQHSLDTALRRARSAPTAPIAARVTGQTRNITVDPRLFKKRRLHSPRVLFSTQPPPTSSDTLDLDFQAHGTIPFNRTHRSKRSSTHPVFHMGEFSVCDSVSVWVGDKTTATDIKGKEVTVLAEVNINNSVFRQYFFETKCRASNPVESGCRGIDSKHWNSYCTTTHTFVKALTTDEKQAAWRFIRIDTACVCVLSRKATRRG

[5] = system: P-gp; test: Binding affinity to P-gp (unknown origin) assessed as efflux ratio by cell based assay; format: ADME; conditions: human, not told
[6] = molecular target: T2, High affinity nerve growth factor receptor; test: Inhibition of His-tagged recombinant human TrkA using Alexa-Fluor tracer-236 incubated for 60 mins by TR-FRET based Lantha-screen Eu kinase binding assay
Target sequence in this assay (P04629 whole entry): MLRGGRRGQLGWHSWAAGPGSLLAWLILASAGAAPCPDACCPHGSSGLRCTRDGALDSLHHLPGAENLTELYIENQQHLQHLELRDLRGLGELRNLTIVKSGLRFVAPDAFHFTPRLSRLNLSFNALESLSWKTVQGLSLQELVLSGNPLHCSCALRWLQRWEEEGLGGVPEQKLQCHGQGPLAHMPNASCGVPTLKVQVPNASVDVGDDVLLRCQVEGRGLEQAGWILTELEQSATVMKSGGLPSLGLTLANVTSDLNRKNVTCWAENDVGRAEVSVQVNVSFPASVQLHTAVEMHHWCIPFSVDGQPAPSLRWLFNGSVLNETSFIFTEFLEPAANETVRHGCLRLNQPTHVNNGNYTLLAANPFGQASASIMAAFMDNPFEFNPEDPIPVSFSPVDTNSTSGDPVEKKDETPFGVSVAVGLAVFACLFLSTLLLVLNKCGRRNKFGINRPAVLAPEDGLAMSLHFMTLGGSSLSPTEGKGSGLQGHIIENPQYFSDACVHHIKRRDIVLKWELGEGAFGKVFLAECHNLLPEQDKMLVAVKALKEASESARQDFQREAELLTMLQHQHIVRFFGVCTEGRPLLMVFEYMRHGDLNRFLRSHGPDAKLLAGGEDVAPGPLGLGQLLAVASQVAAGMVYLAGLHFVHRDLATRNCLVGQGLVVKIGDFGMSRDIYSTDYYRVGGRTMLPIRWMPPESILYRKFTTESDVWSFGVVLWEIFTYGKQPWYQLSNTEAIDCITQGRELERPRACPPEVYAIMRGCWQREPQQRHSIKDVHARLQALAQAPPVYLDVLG

[7] = molecular target: T4, BDNF/NT-3 growth factors receptor (Homo sapiens, UniProt Q16620); test: Inhibition of His6 tagged human recombinant TrkB (455 to end amino acids) expressed in Sf21 cells at 10 uM
Target sequence in this assay (Q16620 32-822 limits assumed): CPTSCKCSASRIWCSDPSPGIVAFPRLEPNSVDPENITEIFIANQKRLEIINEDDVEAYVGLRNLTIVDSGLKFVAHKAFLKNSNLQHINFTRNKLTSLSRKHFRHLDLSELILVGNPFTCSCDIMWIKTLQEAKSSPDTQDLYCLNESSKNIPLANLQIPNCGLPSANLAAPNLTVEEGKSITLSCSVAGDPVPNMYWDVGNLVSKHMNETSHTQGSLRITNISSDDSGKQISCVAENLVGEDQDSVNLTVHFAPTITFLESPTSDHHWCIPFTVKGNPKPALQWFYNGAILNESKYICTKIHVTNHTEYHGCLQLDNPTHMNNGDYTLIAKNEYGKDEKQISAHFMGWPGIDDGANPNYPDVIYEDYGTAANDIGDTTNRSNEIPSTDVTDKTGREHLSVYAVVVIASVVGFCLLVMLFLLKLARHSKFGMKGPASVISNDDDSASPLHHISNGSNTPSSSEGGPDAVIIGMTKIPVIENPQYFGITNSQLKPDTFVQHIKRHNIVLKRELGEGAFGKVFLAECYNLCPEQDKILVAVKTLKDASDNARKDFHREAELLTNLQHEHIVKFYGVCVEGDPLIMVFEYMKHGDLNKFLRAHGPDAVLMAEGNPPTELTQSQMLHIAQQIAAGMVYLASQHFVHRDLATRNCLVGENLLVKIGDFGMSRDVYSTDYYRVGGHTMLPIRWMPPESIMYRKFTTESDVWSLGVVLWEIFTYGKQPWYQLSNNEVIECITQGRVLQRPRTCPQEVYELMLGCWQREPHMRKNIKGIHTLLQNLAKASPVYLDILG

[8] = molecular target: T2, High affinity nerve growth factor receptor; test: Inhibition of TrkA (unknown origin) by cell based assay
Target sequence in this assay (P04629 whole entry): as the sequence (P04629 whole entry) above

[9] = molecular target: T5, High affinity nerve growth factor receptor (Rattus norvegicus, UniProt P35739); test: Inhibition of binding of [125I]-NGF to TrkA in rat PC12 cells incubated for 2 hrs by gamma counting method; format: cell-based, PC-12
T5 sequence (P35739 whole entry): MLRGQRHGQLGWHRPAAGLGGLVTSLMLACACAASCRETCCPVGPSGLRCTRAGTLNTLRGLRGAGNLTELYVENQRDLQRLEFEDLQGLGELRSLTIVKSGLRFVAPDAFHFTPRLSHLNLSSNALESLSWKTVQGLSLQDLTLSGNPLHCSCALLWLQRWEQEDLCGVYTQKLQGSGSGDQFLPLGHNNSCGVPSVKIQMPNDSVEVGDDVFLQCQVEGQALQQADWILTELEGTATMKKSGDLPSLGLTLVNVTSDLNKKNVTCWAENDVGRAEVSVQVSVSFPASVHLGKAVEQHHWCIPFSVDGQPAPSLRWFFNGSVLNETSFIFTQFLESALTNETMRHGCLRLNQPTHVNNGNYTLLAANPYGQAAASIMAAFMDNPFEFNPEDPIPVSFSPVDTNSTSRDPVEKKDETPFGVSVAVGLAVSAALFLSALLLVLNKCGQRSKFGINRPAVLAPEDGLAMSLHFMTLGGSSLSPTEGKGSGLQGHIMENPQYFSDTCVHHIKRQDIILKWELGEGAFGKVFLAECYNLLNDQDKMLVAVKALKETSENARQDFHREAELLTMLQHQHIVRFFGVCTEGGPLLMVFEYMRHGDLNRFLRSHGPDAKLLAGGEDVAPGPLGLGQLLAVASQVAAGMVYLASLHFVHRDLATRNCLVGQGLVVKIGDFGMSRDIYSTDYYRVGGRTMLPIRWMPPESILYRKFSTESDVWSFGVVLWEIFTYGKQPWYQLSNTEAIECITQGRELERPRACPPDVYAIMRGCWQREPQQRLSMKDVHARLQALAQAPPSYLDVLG

[10] = molecular target: T5, High affinity nerve growth factor receptor; test: Inhibition of NGF-induced TrkA auto-phosphorylation in rat PC12 cells incubated for 15 mins by chemiluminescence based method; format: cell-based, PC-12
[11] = system: Rattus norvegicus; test: Inhibition of thermal sensitization-induced tactile allodynia in it dosed rat model of L5/L6 nerve ligation injury; format: functional
[12] = system: Rattus norvegicus; test: Inhibition of mechanical allodynia ip dosed rat model of L5/L6 nerve ligation injury; format: functional
[13] = system: Rattus norvegicus; test: Inhibition of mechanical allodynia in it dosed rat model of L5/L6 nerve ligation injury; format: functional
[14] = molecular target: T4, BDNF/NT-3 growth factors receptor; test: Inhibition of N-terminal GST tagged human TrkB cytoplasmic domain (456 to 822 amino acids) pre-incubated for 15 mins before peptide substrate addition for 180 mins by fluorescence based assay
Target sequence in this assay (Q16620 whole entry): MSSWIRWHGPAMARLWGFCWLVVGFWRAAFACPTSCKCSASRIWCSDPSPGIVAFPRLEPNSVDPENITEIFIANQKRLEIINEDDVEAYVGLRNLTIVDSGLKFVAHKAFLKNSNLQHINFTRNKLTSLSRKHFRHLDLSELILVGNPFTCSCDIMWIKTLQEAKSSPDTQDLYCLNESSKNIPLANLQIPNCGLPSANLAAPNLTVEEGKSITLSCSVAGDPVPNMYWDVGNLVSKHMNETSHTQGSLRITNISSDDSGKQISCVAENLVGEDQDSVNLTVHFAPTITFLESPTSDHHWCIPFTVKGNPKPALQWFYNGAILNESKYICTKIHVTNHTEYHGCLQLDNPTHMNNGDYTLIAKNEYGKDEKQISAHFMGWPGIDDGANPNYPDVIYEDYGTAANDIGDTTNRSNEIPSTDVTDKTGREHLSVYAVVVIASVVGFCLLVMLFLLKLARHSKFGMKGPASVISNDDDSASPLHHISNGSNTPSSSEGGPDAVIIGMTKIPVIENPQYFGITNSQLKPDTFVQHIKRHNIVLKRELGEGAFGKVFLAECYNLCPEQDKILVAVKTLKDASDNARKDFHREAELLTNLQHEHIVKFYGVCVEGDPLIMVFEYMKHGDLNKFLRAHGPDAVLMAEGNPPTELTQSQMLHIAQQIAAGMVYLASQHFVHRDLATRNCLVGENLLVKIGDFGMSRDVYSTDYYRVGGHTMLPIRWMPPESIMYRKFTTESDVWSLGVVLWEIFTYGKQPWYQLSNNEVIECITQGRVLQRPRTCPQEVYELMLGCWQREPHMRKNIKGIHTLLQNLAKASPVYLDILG

[15] = molecular target: T2, High affinity nerve growth factor receptor; test: Inhibition of N-terminal GST tagged human TrkA cytoplasmic domain (436 to 790 amino acids) pre-incubated for 15 mins before peptide substrate addition for 180 mins by fluorescence based assay
Target sequence in this assay (P04629 whole entry): as the sequence (P04629 whole entry) above

[16] = molecular target: NT-3 growth factor receptor (Homo sapiens, UniProt Q16288); test: Inhibition of NT3-stimulated TrkC phosphorylation in human U2OS cells by beta-galactosidase reporter gene based PathHunter profiling assay; format: cell-based
[17] = molecular target: T4, BDNF/NT-3 growth factors receptor; test: Inhibition of BDNF-stimulated TrkB phosphorylation in human U2OS cells by beta-galactosidase reporter gene based PathHunter profiling assay; format: cell-based
Target sequence in this assay (Q16620 whole entry): as the sequence (Q16620 whole entry) above

[18] = molecular target: T2, High affinity nerve growth factor receptor; test: Inhibition of NGF-stimulated TrkA phosphorylation in human U2OS cells by beta-galactosidase reporter gene based PathHunter profiling assay; format: cell-based
Target sequence in this assay (P04629 whole entry): as the sequence (P04629 whole entry) above

Cn1c2ccc(NC(=O)c3ccccc3)cc2c(=O)n2nc(C(=O)O)cc12
IC50 [1]: 110 µM
Imax [2]: 100%
Imax [3]: 65%
IC50 [4]: 47 µM

Cc1cc2nc3c(=O)[nH]c(=O)nc-3n(C)c2cc1C=O
IC50 [1]: 244 µM
Imax [2]: 100%
Imax [3]: 37%
IC50 [4]: 33 µM

COc1ccc(C(=O)c2cn(C(C)C)c3ncnc(N)c23)cc1NC(=O)Nc1ccc(Cl)cc1Cl [CE-245677]
efflux ratio [5]: 1

COCc1ccc2cccc(NC(=O)Nc3c(C)c(-c4cnn(C)c4)nn3-c3ccccc3)c2c1
IC50 [6]: < 0.1 µM
inhibition [7]: 91%

CC(=O)NCc1ncc(NC(=O)c2ccc(C(F)(F)F)c(-c3ccn(C)n3)c2)c(-c2ccccc2)n1
IC50 [8]: 0.004 µM

O=C1c2cccc3cc([N+](=O)[O-])cc(c23)C(=O)N1NCCO
IC50 [1]: > 300 µM
IC50 [9]: 5.88 µM
Imax [2]: 44%
Imax [3]: 6.2%
EC50 [10]: 22 µM
ED50 [11]: 50 µg
ED50 [12]: 38 mg/kg
IC50 [4]: 149 µM
ED50 [13]: 34.6 µg

Cc1c(-c2cnn(C)c2)nn(-c2ccccc2)c1NC(=O)Nc1cc(C(F)(F)F)nn1-c1ccccc1
IC50 [6]: < 0.1 µM

COc1ccc(COc2ccc(Cn3c(N)nc4cc(-c5cnn(C)c5)ccc43)cc2OC)cc1
IC50 [14]: 0.0003 µM
IC50 [15]: 0.0003 µM

Cn1c2c(N)cc(N)cc2c(=O)n2nc(C(=O)O)c([N+](=O)[O-])c12
Imax [3]: 70%

COCCCc1cc(Cl)c(Cl)cc1NC(=O)Nc1c(C)c(-c2cnn(C)c2)nn1-c1ccccc1
IC50 [6]: < 0.1 µM

Cc1c(-c2cnn(C)c2)nn(-c2ccccc2)c1NC(=O)Nc1sc(C(F)(F)F)nc1-c1ccccc1
IC50 [6]: < 0.1 µM
inhibition [7]: 97%

O=C(O)c1ccc(Nc2cc(N3CCN(C4CCCCC4)CC3)c3noc4c3c2C(=O)c2ccccc2-4)cc1
IC50 [16]: > 10 µM
IC50 [17]: > 10 µM
IC50 [18]: 0.05 µM
